Blank lines part the entries; values can stand above or below the molecule they belong to.
How the values were obtained:
Leishmania donovani = assay: Antileishmanial activity against Leishmania donovani promastigote assessed as reduction in parasite growth measured after 72 hrs; assay type: functional, organism-based
[1] = tested on: Trypanosoma brucei brucei; assay: Antitrypanosomal activity against bloodstream Trypanosoma brucei brucei s427 assessed as reduction in parasite growth measured after 72 hrs by inverted microscope based analysis; assay type: functional, organism-based; conditions: s427, 72 h
Leishmania amazonensis = assay: Antileishmanial activity against Leishmania amazonensis IFLA/BR/1967/PH8 promastigote; assay type: functional, organism-based
Trypanosoma brucei [2] = assay: Antitrypanosomal activity against Trypanosoma brucei assessed as reduction in parasite growth; assay type: functional, organism-based
[3] = molecular target: T1, Glycylpeptide N-tetradecanoyltransferase (Plasmodium falciparum, UniProt Q9U419); assay: Inhibition of recombinant N-terminal Plasmodium falciparum NMT expressed in Escherichia coli using peptide substrate preincubated for 5 mins followed by substrate addition and measured after 30 mins by scintillation proximity assay
T1 sequence (Q9U419 whole entry): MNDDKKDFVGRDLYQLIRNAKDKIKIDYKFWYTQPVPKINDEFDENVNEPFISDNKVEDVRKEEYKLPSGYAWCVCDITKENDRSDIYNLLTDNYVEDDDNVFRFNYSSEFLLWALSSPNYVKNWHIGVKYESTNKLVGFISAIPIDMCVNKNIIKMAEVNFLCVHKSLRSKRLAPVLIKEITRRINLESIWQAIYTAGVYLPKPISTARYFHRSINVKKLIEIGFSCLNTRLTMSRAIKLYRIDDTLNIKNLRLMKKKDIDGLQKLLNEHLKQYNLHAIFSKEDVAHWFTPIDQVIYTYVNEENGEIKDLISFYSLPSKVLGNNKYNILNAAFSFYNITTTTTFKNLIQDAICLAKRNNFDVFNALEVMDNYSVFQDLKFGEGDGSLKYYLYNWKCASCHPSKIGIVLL

[4] = Selectivity index, ratio of IC50 for MDCK cells to IC50 for trophozoite stage Plasmodium falciparum 3D7; assay type: toxicity; conditions: dog; read-out: Ratio IC50
[5] = Cytotoxicity against MDCK cells incubated overnight by MTT assay; assay type: toxicity, cell-based, Canis lupus familiaris; conditions: dog
Plasmodium falciparum [6] = assay: Antiplasmodial activity against chloroquine resistant Plasmodium falciparum K1 assessed as inhibition of plasmodial growth measured after 48 hrs by flow cytometry analysis; assay type: functional, organism-based; conditions: K1, 48 h
Plasmodium falciparum [7] = assay: Antiplasmodial activity against trophozoite stage Plasmodium falciparum 3D7 assessed as inhibition of plasmodial growth measured after 48 hrs by flow cytometry analysis; assay type: functional, organism-based; conditions: 3D7, 48 h
Trypanosoma cruzi [8] = assay: Antiprotozoal activity against Trypanosoma cruzi amastigotes measured after 24 hrs; assay type: functional, organism-based
Plasmodium falciparum [9] = assay: Antiplasmodial activity against Plasmodium falciparum; assay type: functional, organism-based
[10] = Inhibition of Trypanosoma brucei NMT
[11] = molecular target: T2, Glycylpeptide N-tetradecanoyltransferase 1 (Homo sapiens, UniProt P30419); assay: Inhibition of human NMT
T2 sequence (P30419 whole entry): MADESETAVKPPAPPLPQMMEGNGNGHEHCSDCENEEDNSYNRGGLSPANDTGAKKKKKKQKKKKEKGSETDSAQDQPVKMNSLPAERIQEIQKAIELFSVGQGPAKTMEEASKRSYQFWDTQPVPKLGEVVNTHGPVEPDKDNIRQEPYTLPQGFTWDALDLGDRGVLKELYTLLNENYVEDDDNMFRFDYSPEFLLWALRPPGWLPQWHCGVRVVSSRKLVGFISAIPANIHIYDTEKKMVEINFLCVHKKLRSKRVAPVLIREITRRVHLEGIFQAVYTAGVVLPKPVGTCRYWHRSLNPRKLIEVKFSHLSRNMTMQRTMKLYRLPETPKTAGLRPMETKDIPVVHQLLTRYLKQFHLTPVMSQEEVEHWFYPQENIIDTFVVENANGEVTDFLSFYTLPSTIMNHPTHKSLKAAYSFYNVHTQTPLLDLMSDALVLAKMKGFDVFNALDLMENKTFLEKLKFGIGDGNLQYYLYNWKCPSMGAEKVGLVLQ

[12] = Cytotoxicity against mouse RAW 264 cells by alamar blue staining based analysis; assay type: functional; conditions: RAW264.7, read-out: ED50 (the source's name)
Trypanosoma brucei [13] = assay: Antiprotozoal activity against blood stream form Trypanosoma brucei assessed as reduction in number of viable parasites measured after 72 hrs by Alamar blue staining based analysis; assay type: functional; conditions: read-out: ED50 (the source's name)
[14] = Inhibition of N terminal his-6 tagged recombinant Trypanosoma brucei NMT incubated for 30 mins using biotinylated peptide substrate by scintillation counter analysis
[15] = Inhibition of N terminal his-6 tagged recombinant Trypanosoma brucei NMT using CAP5.5 peptide as substrate incubated for 10 mins
Plasmodium falciparum [16] = assay: Antiplasmodial activity against synchronized late stage trophozoite Plasmodium falciparum 3D7 assessed as reduction in parasitemia relative to control; assay type: functional; parameters: scale not given: the % may be the effect or the level left
Plasmodium falciparum [17] = assay: Antiplasmodial activity against Plasmodium falciparum 3D7 assessed as reduction in parasitemia growth; assay type: functional, organism-based
[18] = molecular target: T1, Glycylpeptide N-tetradecanoyltransferase; assay: Inhibition of recombinant his tagged Plasmodium falciparum NMT expressed in Escherichia coli
Trypanosoma cruzi [19] = assay: Antiprotozoal activity against Trypanosoma cruzi epimastigotes assessed as reduction in parasite growth relative to control; assay type: functional; parameters: scale not given: the % may be the effect or the level left

SMILES: CCc1ccc(NC(=O)C[Se]C(=O)c2ccc(Cl)cc2)cc1
- IC50 (Leishmania amazonensis): 7.41 µM

SMILES: CN(C)C(=O)c1ccc2nc(NC(=O)[C@@H]3CCC[C@H](NCc4ccc5ccoc5c4)C3)sc2c1
- IC50 [3]: 53 µM

SMILES: O=[N+]([O-])c1ccc(S(=O)(=O)N2CCC(O[C@@H](c3ccc(Cl)cc3)c3ccccn3)CC2)cc1
- selectivity ratio [4]: > 61.1
- IC50 [5]: > 200 µM
- IC50 (Plasmodium falciparum [6]): 7.22 µM
- IC50 (Plasmodium falciparum [7]): 3.27 µM

SMILES: Cc1nn(C)c(C)c1N(C(F)F)S(=O)(=O)c1c(Cl)cc(-c2ccc(CCCCC3CCN(C)CC3)cc2)cc1Cl
- EC50 (Trypanosoma cruzi [8]): 0.02 µM

SMILES: Cc1cc(CN2C(=O)COc3c(CCCCC4CCCN(C)CC4)cccc32)no1 (centres undefined)
- IC50 [10]: < 0.002 µM
- EC50 (Trypanosoma brucei [2]): 0.007 µM
- IC50 [11]: 0.1 µM

SMILES: Cc1cc(CN2C(=O)COc3cc(CCCOC[C@@H]4CCCN4C)ccc32)no1
- IC50 [10]: 0.009 µM
- EC50 (Trypanosoma brucei [2]): 0.007 µM
- IC50 [11]: 24 µM

SMILES: O=C(C[Se]C(=O)c1ccccc1)Nc1ccc(Cl)cc1
- IC50 (Leishmania amazonensis): 7.08 µM

SMILES: CCOC(=O)CN1C(=O)COc2ccccc21
- IC50 [10]: 12 µM

SMILES: Cc1nc(CN2C(=O)COc3ccccc32)no1
- IC50 [10]: 7 µM

SMILES: O=S(=O)(c1cc(Cl)ccc1Cl)N1CCC(O[C@@H](c2ccc(Cl)cc2)c2ccccn2)CC1
- selectivity ratio [4]: > 68.8
- IC50 [5]: > 200 µM
- IC50 (Plasmodium falciparum [6]): 4.19 µM
- IC50 (Plasmodium falciparum [7]): 2.91 µM

SMILES: O=S(=O)(c1cc(Cl)ccc1Cl)N1CCC(O[C@H](c2ccc(Cl)cc2)c2ccccn2)CC1
- selectivity ratio [4]: > 92.3
- IC50 [5]: > 200 µM
- IC50 (Plasmodium falciparum [6]): 2.38 µM
- IC50 (Plasmodium falciparum [7]): 2.17 µM

SMILES: O=C(O)C1=CC(=C(c2ccc(O)c(C(=O)O)c2)c2ccc(O)c(C(=O)O)c2)C=CC1=O [AURINTRICARBOXYLIC ACID]
- IC50 [14]: 0.74 µM

Now from value to molecule, other results behind:

- IC50 [1]: 9.36 µM
SMILES: Cc1ccc(S(=O)(=O)Nc2ccccc2Sc2ncnc3c(C)csc23)cc1
- IC50 (Leishmania donovani): 32.1 µM

- EC50 (Trypanosoma brucei [2]): 0.007 µM
SMILES: Cc1cc(CN2C(=O)COc3cc(CCCOC4CCNCC4)ccc32)no1

- IC50 [1]: 45 µM
SMILES: Cc1onc(-c2ccccc2)c1CNS(=O)(=O)c1cnn(-c2ccccc2)c1C
- IC50 (Leishmania donovani): 15.7 µM

- IC50 (Plasmodium falciparum [9]): 3.6 µM
SMILES: Cc1ccc(S(=O)(=O)NC(C)C(=O)NC(C)C(=O)NC23CC4CC(CC(C4)C2)C3)cc1 (centres undefined)

- IC50 [1]: 2.91 µM
SMILES: CCOC(=O)c1c(C)nn(-c2ccc(NS(=O)(=O)c3ccc(OC)cc3)cc2)c1C
- IC50 (Leishmania donovani): 13.8 µM

- EC50 (Trypanosoma cruzi [8]): 0.06 µM
SMILES: Cc1nn(C)c(C)c1N(C(F)F)S(=O)(=O)c1c(Cl)cc(-c2ccc(CCCC3CCN(C)CC3)cc2)cc1Cl

- EC50 (Trypanosoma brucei [13]): 16 µM
SMILES: Cc1c2c(c(O)c3c(O)cccc13)C(=O)OC2c1cc(O)c(C(N)=O)c(O)c1O (centres undefined)
- EC50 [12]: 328 µM
- IC50 [14]: 0.77 µM
- IC50 [15]: 0.46 µM

- IC50 [3]: 30 µM
SMILES: O=C(Nc1nc2ccccc2s1)[C@H]1CC[C@@H](NCc2ccc3ccccc3c2)CC1
- Activity (Plasmodium falciparum [16]): 80%

- IC50 [18]: 1.4 µM
SMILES: Cc1cc(Nc2ccc([N+](=O)[O-])cc2O)nc2ccccc12
- EC50 (Plasmodium falciparum [17]): 0.4 µM

- EC50 (Trypanosoma cruzi [8]): 1.83 µM
SMILES: Cc1c(NS(=O)(=O)c2c(Cl)cc(-c3ccnc(N4CCNCC4)c3)cc2Cl)c(CC(C)C)nn1C [ZELENIRSTAT]
- Activity (Trypanosoma cruzi [19]): 0.43%

Source: ChEMBL document CHEMBL5634069, “Exploring N-myristoyltransferase as a promising drug target against parasitic neglected tropical diseases” (Eur J Med Chem, 2023)
